Data as given in ChEMBL document CHEMBL1157646, “Melanogenesis inhibitors from the desert plant Anastatica hierochuntica in B16 melanoma cells” (Bioorg Med Chem, 2010).
Active and inactive are the calls of the source. No cut-off for these calls is given here.

Test system: not listed separately
Experiment: cells
Conditions: Mus musculus, B16-4A5, 72 h, read-out: INH
Description: Inhibition of theophylline-stimulated melanogenesis in mouse B16-4A5 cells at 3 uM after 72 hrs

Structure (SMILES) | inhibition at 3 µM
COc1ccc([C@@H]2Oc3c(O)cc(/C=C/C=O)cc3[C@H]2CO)cc1OC | 8.4%
O=C1C[C@@H](c2ccc(O)cc2)Oc2cc3oc4cc(O)c(O)cc4c3c(O)c21 [ANASTATIN A] | 14.9%
COC/C=C/c1cc(O)c2c(c1)[C@@H](CO)[C@H](c1ccc(O)c(OC)c1)O2 [HIEROCHIN A] | 8%
COc1cc([C@@H]2Oc3c(O)cc([C@H]4Oc5cc(O)cc(O)c5C(=O)[C@@H]4O)cc3[C@H]2CO)ccc1O [SILICRISTIN A] | 1.3%
COc1cc([C@H]2Oc3c(O)cc([C@H]4Oc5cc(O)cc(O)c5C(=O)[C@@H]4O)cc3[C@@H]2CO)ccc1O [SILICRISTIN B] | -1.3%

Test system: not listed separately
Experiment: cells
Conditions: Mus musculus, B16-4A5, 72 h, read-out: INH
Remark: another data set of the same source
Description: Inhibition of theophylline-stimulated melanogenesis in mouse B16-4A5 cells at 30 uM after 72 hrs

Structure (SMILES) | inhibition at 30 µM
COc1ccc([C@@H]2Oc3c(O)cc(/C=C/C=O)cc3[C@H]2CO)cc1OC | 76.8%
O=C1C[C@@H](c2ccc(O)cc2)Oc2cc3oc4cc(O)c(O)cc4c3c(O)c21 [ANASTATIN A] | 65.1%
COC/C=C/c1cc(O)c2c(c1)[C@@H](CO)[C@H](c1ccc(O)c(OC)c1)O2 [HIEROCHIN A] | 51.8%
COc1cc([C@@H]2Oc3c(O)cc([C@H]4Oc5cc(O)cc(O)c5C(=O)[C@@H]4O)cc3[C@H]2CO)ccc1O [SILICRISTIN A] | 17.4%
COc1cc([C@H]2Oc3c(O)cc([C@H]4Oc5cc(O)cc(O)c5C(=O)[C@@H]4O)cc3[C@@H]2CO)ccc1O [SILICRISTIN B] | 1.2%

Test system: not listed separately
Experiment: cells
Conditions: Mus musculus, B16-4A5, 72 h, read-out: INH
Remark: another data set of the same source
Description: Inhibition of theophylline-stimulated melanogenesis in mouse B16-4A5 cells at 10 uM after 72 hrs

Structure (SMILES) | inhibition at 10 µM
COc1ccc([C@@H]2Oc3c(O)cc(/C=C/C=O)cc3[C@H]2CO)cc1OC | 33.6%
O=C1C[C@@H](c2ccc(O)cc2)Oc2cc3oc4cc(O)c(O)cc4c3c(O)c21 [ANASTATIN A] | 35.9%
COC/C=C/c1cc(O)c2c(c1)[C@@H](CO)[C@H](c1ccc(O)c(OC)c1)O2 [HIEROCHIN A] | 32.5%
COc1cc([C@@H]2Oc3c(O)cc([C@H]4Oc5cc(O)cc(O)c5C(=O)[C@@H]4O)cc3[C@H]2CO)ccc1O [SILICRISTIN A] | 3.8%
COc1cc([C@H]2Oc3c(O)cc([C@H]4Oc5cc(O)cc(O)c5C(=O)[C@@H]4O)cc3[C@@H]2CO)ccc1O [SILICRISTIN B] | 1.6%

Molecular target: T1, Tyrosinase (Agaricus bisporus) (UniProt O42713)
T1 sequence (whole entry): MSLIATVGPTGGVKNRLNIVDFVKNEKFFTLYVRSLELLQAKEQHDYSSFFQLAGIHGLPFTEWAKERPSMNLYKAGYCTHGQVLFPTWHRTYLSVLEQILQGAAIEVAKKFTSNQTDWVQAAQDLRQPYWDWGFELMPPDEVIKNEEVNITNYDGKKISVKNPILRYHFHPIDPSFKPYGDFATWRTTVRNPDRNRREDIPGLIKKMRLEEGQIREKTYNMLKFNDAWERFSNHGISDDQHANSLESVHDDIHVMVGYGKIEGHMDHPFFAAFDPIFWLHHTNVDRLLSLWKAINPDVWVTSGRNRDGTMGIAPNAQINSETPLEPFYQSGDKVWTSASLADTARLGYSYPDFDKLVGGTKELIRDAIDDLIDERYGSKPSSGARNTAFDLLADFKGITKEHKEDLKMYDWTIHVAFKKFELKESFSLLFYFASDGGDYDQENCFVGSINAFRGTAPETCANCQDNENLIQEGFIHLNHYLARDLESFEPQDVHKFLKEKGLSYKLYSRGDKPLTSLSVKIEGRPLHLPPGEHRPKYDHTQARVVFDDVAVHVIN
Experiment: Inhibition of mushroom tyrosinase at 1 uM
Conditions: not given

inhibition | Structure (SMILES)
6.4% | O=C1C[C@@H](c2ccc(O)cc2)Oc2cc3oc4cc(O)c(O)cc4c3c(O)c21 [ANASTATIN A]

Test system: not listed separately
Experiment: Toxicity in mouse B16-4A5 cells assessed as inhibition of cell proliferation at 30 uM in presence of 1 mM theophylline after 72 hrs by WST8 dye reduction assay
Type: cell-based
Conditions: not given

Structure (SMILES) | inhibition at 72 h, 30 µM
COc1ccc([C@@H]2Oc3c(O)cc(/C=C/C=O)cc3[C@H]2CO)cc1OC | < 8.8%
O=C1C[C@@H](c2ccc(O)cc2)Oc2cc3oc4cc(O)c(O)cc4c3c(O)c21 [ANASTATIN A] | < 8.8%
COC/C=C/c1cc(O)c2c(c1)[C@@H](CO)[C@H](c1ccc(O)c(OC)c1)O2 [HIEROCHIN A] | < 8.8%
COc1cc([C@@H]2Oc3c(O)cc([C@H]4Oc5cc(O)cc(O)c5C(=O)[C@@H]4O)cc3[C@H]2CO)ccc1O [SILICRISTIN A] | < 8.8%
COc1cc([C@H]2Oc3c(O)cc([C@H]4Oc5cc(O)cc(O)c5C(=O)[C@@H]4O)cc3[C@@H]2CO)ccc1O [SILICRISTIN B] | < 8.8%

Molecular target: T1, Tyrosinase (Agaricus bisporus)
Experiment: Inhibition of mushroom tyrosinase at 3 uM
Conditions: not given

inhibition | Structure (SMILES)
6.7% | O=C1C[C@@H](c2ccc(O)cc2)Oc2cc3oc4cc(O)c(O)cc4c3c(O)c21 [ANASTATIN A]

Test system: not listed separately
Experiment: cells
Conditions: Mus musculus, B16-4A5, 72 h, read-out: INH
Remark: another data set of the same source
Description: Inhibition of theophylline-stimulated melanogenesis in mouse B16-4A5 cells at 1 uM after 72 hrs

Structure (SMILES) | inhibition at 1 µM
COc1ccc([C@@H]2Oc3c(O)cc(/C=C/C=O)cc3[C@H]2CO)cc1OC | 10.7%
O=C1C[C@@H](c2ccc(O)cc2)Oc2cc3oc4cc(O)c(O)cc4c3c(O)c21 [ANASTATIN A] | 7.1%
COC/C=C/c1cc(O)c2c(c1)[C@@H](CO)[C@H](c1ccc(O)c(OC)c1)O2 [HIEROCHIN A] | 1.9%
COc1cc([C@@H]2Oc3c(O)cc([C@H]4Oc5cc(O)cc(O)c5C(=O)[C@@H]4O)cc3[C@H]2CO)ccc1O [SILICRISTIN A] | 4.1%
COc1cc([C@H]2Oc3c(O)cc([C@H]4Oc5cc(O)cc(O)c5C(=O)[C@@H]4O)cc3[C@@H]2CO)ccc1O [SILICRISTIN B] | 4.2%

Molecular target: T1, Tyrosinase (Agaricus bisporus)
Experiment: Inhibition of mushroom tyrosinase assessed as inhibition of melanin production from dopachrome by autoxidation at 100 uM
Conditions: not given

Structure (SMILES) | inhibition
COc1ccc([C@@H]2Oc3c(O)cc(/C=C/C=O)cc3[C@H]2CO)cc1OC | inactive
O=C1C[C@@H](c2ccc(O)cc2)Oc2cc3oc4cc(O)c(O)cc4c3c(O)c21 [ANASTATIN A] | inactive
COC/C=C/c1cc(O)c2c(c1)[C@@H](CO)[C@H](c1ccc(O)c(OC)c1)O2 [HIEROCHIN A] | inactive
